According to US8741897B2, “Glucocorticoid mimetics, methods of making them, pharmaceutical compositions and uses thereof” (Boehringer Ingelheim Pharmaceuticals Inc., priority 2003, dated 2014):

How the values were obtained:
[1] = molecular target: T1, human glucocorticoid receptor (GR) complex (Homo sapiens, UniProt P04150); assay: Glucocorticoid receptor competitive binding assay (fluorescence polarization, TAMRA-labeled dexamethasone probe); conditions: compounds of Formula (IA)
T1 construct: made in house; host or cells: insect expression system (baculovirus lysate)
T1 sequence (P04150 1-777): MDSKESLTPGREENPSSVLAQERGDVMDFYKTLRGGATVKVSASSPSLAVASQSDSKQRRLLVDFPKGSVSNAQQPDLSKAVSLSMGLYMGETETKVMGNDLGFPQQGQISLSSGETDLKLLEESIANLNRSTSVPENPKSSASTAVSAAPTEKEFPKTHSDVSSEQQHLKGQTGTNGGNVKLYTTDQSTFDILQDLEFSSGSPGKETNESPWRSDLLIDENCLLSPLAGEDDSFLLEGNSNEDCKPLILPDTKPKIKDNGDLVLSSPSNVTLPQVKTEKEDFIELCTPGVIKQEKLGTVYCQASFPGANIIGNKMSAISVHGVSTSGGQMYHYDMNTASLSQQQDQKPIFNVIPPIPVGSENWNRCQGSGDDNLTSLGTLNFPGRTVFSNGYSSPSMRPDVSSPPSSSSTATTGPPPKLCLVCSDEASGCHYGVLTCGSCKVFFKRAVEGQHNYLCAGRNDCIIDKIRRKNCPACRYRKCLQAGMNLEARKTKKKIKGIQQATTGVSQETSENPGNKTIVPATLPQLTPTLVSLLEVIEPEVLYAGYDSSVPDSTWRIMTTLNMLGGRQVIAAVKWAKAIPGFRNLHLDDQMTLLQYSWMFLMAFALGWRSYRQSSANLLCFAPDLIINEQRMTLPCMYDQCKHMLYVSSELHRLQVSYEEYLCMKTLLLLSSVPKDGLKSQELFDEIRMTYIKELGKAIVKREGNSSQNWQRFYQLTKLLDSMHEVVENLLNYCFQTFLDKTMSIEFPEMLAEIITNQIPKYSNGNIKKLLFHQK
Procedure: Compounds of the invention were evaluated for binding to the steroid receptor by a fluorescence polarization competitive binding assay. Detailed descriptions for preparation of recombinant glucocorticoid receptor (GR) complex used in the assay is described in U.S. patent application Pub.
A. Glucocorticoid Receptor Competitive Binding Assay
Step 1. Characterization of the Fluorescent Probe
The wavelengths for maximum excitation and emission of the fluorescent probe should first be measured. An example of such a probe is rhodamine (TAMRA)-labeled dexamethasone.
The affinity of the probe for the steroid receptor was then determined in a titration experiment. The fluorescence polarization value of the probe in assay buffer was measured on an SLM-8100 fluorometer using the excitation and emission maximum values described above. Aliquots of expression vector lysate were added and fluorescence polarization was measured after each addition until no further change in polarization value was observed. Non-linear least squares regression analysis was used to calculate the dissociation constant of the probe from the polarization values obtained for lysate binding to the probe.
Step 2. Screening for Inhibitors of Probe Binding
This assay uses fluorescence polarization (FP) to quantitate the ability of test compounds to compete with tetramethyl rhodamine (TAMRA)-labeled dexamethasone for binding to a human glucocorticoid receptor (GR) complex prepared from an insect expression system. The assay buffer was: 10 mM TES, 50 mM KCl, 20 mM Na2MoO4.2H2O, 1.5 mM EDTA, 0.04% w/v CHAPS, 10% v/v glycerol, 1 mM dithiothreitol, pH 7.4. Test compounds were dissolved to 1 mM in neat DMSO and then further diluted to 10× assay concentration in assay buffer supplemented with 10% v/v DMSO. Test compounds were serially diluted at 10× assay concentrations in 10% DMSO-containing buffer in 96-well polypropylene plates. Binding reaction mixtures were prepared in 96-well black Dynex microtiter plates by sequential addition of the following assay components to each well: 15 μL of 10× test compound solution, 85 μL of GR-containing baculovirus lysate diluted 1:170 in assay buffer, and 50 μL of 15 nM TAMRA-labeled dexamethasone. Positive controls were reaction mixtures containing no test compound; negative controls (blanks) were reaction mixtures containing 0.7 μM to 2 μM dexamethasone. […] IC50 values were determined by iterative non-linear curve fitting of the FP signal data to a 4-parameter logistic equation.

[2] = test system: glucocorticoid receptor function; assay: one or more of the above assays (GR binding and glucocorticoid receptor cell assays: aromatase, IL-6, TAT, MMTV-Luc, IL-8, ICAM-Luc); format: cell-based; conditions: assay not specified per compound

SMILES	activity in the GR binding assay [1]	activity as agonists of the glucocorticoid receptor function in one or more of the above assays [2]
CN(C)Cc1cccc(C(C)(C)CC(O)(Cc2cc3cc(C#N)ccc3[nH]2)C(F)(F)F)c1 (stereo not drawn) [2-[4-(3-Dimethylaminomethylphenyl)-2-hydroxy-4-methyl-2-trifluoromethylpentyl]-1H-indole-5-carbonitrile]	potent activity	potent agonists
Cc1ccc(F)c2[nH]c(CC(O)(CC(C)(C)c3ccc(F)cc3O)C(F)(F)F)cc12 (stereo not drawn) [5-Fluoro-2-[4,4,4-trifluoro-3-(7-fluoro-4-methyl-1H-indol-2-ylmethyl)-3-hydroxy-1,1-dimethylbutyl]phenol]	potent activity	potent agonists
CC(C)(CC(O)(Cc1cc2ccccc2[nH]1)C(F)(F)F)c1cccc(Cl)c1 (stereo not drawn) [4-(3-Chlorophenyl)-1,1,1-trifluoro-2-(1H-indol-2-ylmethyl)-4-methylpentan-2-ol]	potent activity	potent agonists
Cc1cccc(C)c1C(C)(C)CC(O)(Cc1cc2ccccc2[nH]1)C(F)(F)F (stereo not drawn) [4-(2,6-Dimethylphenyl)-1,1,1-trifluoro-2-(1H-indol-2-ylmethyl)-4-methylpentan-2-ol]	potent activity	potent agonists
COc1ccc(F)cc1C(C)(C)CC(O)(Cc1cc(Cl)nc(Cl)c1C#N)C(F)(F)F (stereo not drawn) [2,6-Dichloro-4-[4-(5-fluoro-2-methoxyphenyl)-2-hydroxy-4-methyl-2-trifluoromethylpentyl]nicotinonitrile]	potent activity	potent agonists
Cc1ccc(O)c(C(C)(C)CC(O)(Cc2cc3c(C)cc(C#N)cc3[nH]2)C(F)(F)F)c1 (stereo not drawn) [2-[2-Hydroxy-4-(2-hydroxy-5-methylphenyl)-4-methyl-2-trifluoromethylpentyl]-4-methyl-1H-indole-6-carbonitrile]	potent activity	potent agonists
COc1ccc(F)cc1C(C)(C)CC(O)(Cc1ccnc(C#N)c1)C(F)(F)F (stereo not drawn) [4-[4-(5-Fluoro-2-methoxyphenyl)-2-hydroxy-4-methyl-2-trifluoromethylpentyl]pyridine-2-carbonitrile]	potent activity	potent agonists
CSc1cc2c(c(C(C)(C)CC(O)(Cc3[nH]c4ccccc4c3C#N)C(F)(F)F)c1)OCC2 (stereo not drawn) [2-[2-Hydroxy-4-methyl-4-(5-methylsulfanyl-2,3-dihydrobenzofuran-7-yl)-2-trifluoromethylpentyl]-1H-indole-3-carbonitrile]	potent activity	potent agonists
COc1ccc(F)cc1C(C)(C)CC(O)(Cc1cc2cc(C#N)ncc2[nH]1)C(F)(F)F (stereo not drawn) [2-[4-(5-Fluoro-2-methoxyphenyl)-2-hydroxy-4-methyl-2-trifluoromethylpentyl]-1H-pyrrolo[2,3-c]pyridine-5-carbonitrile]	potent activity	potent agonists
COc1ccc(F)cc1C(C)(C)CC(O)(Cc1cc2cnncc2s1)C(F)(F)F (stereo not drawn) [1,1,1-Trifluoro-4-(5-fluoro-2-methoxyphenyl)-4-methyl-2-thieno[2,3-d]pyridazin-2-ylmethylpentan-2-ol]	potent activity	potent agonists
CC(C)(CC(O)(Cc1cc2cc(C(=O)N3CCOCC3)ccc2[nH]1)C(F)(F)F)c1cc(Br)cc2c1OCC2 (stereo not drawn) [{2-[4-(5-Bromo-2,3-dihydrobenzofuran-7-yl)-2-hydroxy-4-methyl-2-trifluoromethylpentyl]-1H-indol-5-yl}morpholin-4-ylmethanone]	potent activity	potent agonists
COc1ccc(F)cc1C(C)(C)CC(O)(Cc1ccnc2c(C)cc(C)cc12)C(F)(F)F (stereo not drawn) [2-(6,8-Dimethylquinolin-4-ylmethyl)-1,1,1-trifluoro-4-(5-fluoro-2-methoxyphenyl)-4-methylpentan-2-ol]	potent activity	potent agonists
CC(C)(CC(O)(Cc1ccnc2ccccc12)C(F)(F)F)c1ccc(F)cc1 (stereo not drawn) [1,1,1-Trifluoro-4-(4-fluorophenyl)-4-methyl-2-quinolin-4-ylmethylpentan-2-ol]	potent activity	potent agonists
COc1ccc(F)cc1C(C)(C)CC(O)(Cc1ccnc2cc(C)ccc12)C(F)(F)F (stereo not drawn) [1,1,1-Trifluoro-4-(5-fluoro-2-methoxyphenyl)-4-methyl-2-(7-methylquinolin-4-ylmethyl)pentan-2-ol]	potent activity	potent agonists
COc1ccc(F)cc1C(C)(C)CC(O)(Cc1cc2cc(C(F)(F)F)ncc2[nH]1)C(F)(F)F (stereo not drawn) [1,1,1-Trifluoro-4-(5-fluoro-2-methoxyphenyl)-4-methyl-2-(5-trifluoromethyl-1H-pyrrolo[2,3-c]pyridin-2-ylmethyl)pentan-2-ol]	potent activity	potent agonists
Cc1ccc(F)cc1C(C)(C)CC(O)(Cn1ccc2ncccc21)C(F)(F)F (stereo not drawn) [1,1,1-Trifluoro-4-(5-fluoro-2-methylphenyl)-4-methyl-2-pyrrolo[3,2-b]pyridin-1-ylmethylpentan-2-ol]	potent activity	potent agonists
COc1ccc(F)cc1C(C)(C)CC(O)(Cc1cc(C)nc2ccccc12)C(F)(F)F (stereo not drawn) [1,1,1-Trifluoro-4-(5-fluoro-2-methoxyphenyl)-4-methyl-2-(2-methylquinolin-4-ylmethyl)pentan-2-ol]	potent activity	potent agonists
COc1ccc(F)cc1C(C)(C)CC(O)(Cc1cc2ccncc2s1)C(F)(F)F (stereo not drawn) [1,1,1 -Trifluoro-4-(5-fluoro-2-methoxyphenyl)-4-methyl-2-thieno[2,3-c]pyridin-2-ylmethylpentan-2-ol]	potent activity	potent agonists
CC(C)(C)c1ccc(O)c(C(C)(C)CC(O)(Cc2[nH]c3ccccc3c2C#N)C(F)(F)F)c1 (stereo not drawn) [2-[4-(5-tert-Butyl-2-hydroxyphenyl)-2-hydroxy-4-methyl-2-trifluoromethylpentyl]-1H-indole-3-carbonitrile]	potent activity	potent agonists
COc1ccc(F)cc1C(C)(C)CC(O)(Cc1cc2cc(C(=O)N3CCC(=O)CC3)ccc2[nH]1)C(F)(F)F (stereo not drawn) [1-{2-[4-(5-Fluoro-2-methoxyphenyl)-2-hydroxy-4-methyl-2-trifluoromethylpentyl]-1H-indole-5-carbonyl}piperidin-4-one]	potent activity	–
